Where no end group is shown, it is not given here.
What was measured:
lasI mRNA = test: qRT-PCR of quorum sensing-related gene lasI; assay type: cell-based, Pseudomonas aeruginosa; conditions: 800 µM, 10 h
Method: (§1) The effects of BmKn‒22 peptide on the expression of quorum sensing‒related genes in P. aeruginosa PAO1 were assessed by qPCR. Briefly, bacterial suspension at approximately 10^7 CFU/mL was cultured in the presence or absence of the test peptide (800 μM, final concentration) at 37 ^OC for 10 h using a shaking incubator. After centrifugation at 4,500 rpm for 10 minutes, the bacterial cells were harvested and subsequently subjected to total RNA extraction using TRIzol® reagent (Invitrogen, USA) as per the manufacturer’s instruction. The concentration of the extracted RNA was measured using Nanodrop spectrophotometer (NanoDrop Technologies, USA). Thereafter, 1 μg of extracted RNA was reverse-transcribed into cDNA using Random Hexamer primer and RevertAid First Strand cDNA synthesis kit (Fermantas), which was amplified by real-time PCR. The primers for the genes lasI, lasR, RhlI, RhlR and 16S rRNA were used (Table 2). All primers were synthesized by the Integrated DNA Technology (IDT), Canada. The reaction mixture consisted of 1× AccuPower® 2X GreenStar™ qPCR Master Mix, 0.4 μmol/L each forward primer and reverse primer and 1 μL of cDNA in a final volume of 10 μL. Thermal cycles used was 95 ^OC for 2.5 min, followed by 40 cycles of 95 ^OC for 30 sec, 60 ^OC for 30 sec and 72 ^OC for 30 sec. The expression level of the target gene was normalized to 16S rRNA gene. Relative expression of the target genes was obtained from 2^‒ΔΔct.

sheep red blood cells = test: Hemolytic assay; assay type: cell-based; conditions: 800 µM, 37 °C, 1 h
Method: Hemolytic activity of the test peptides was assayed according to a protocol described previously. Suspension of 2% sheep red blood cells (100 μL) prepared in PBS pH 7.4 was incubated with 100 μL of the test peptides (800 μM, final concentration). After incubation at 37 ^OC for 1 h, the suspension was centrifuged at 1,000 g for 5 min followed by transferring 100 μL of the supernatant to 96 well-microtiter plate (Nunc). Released hemoglobin was then determined by measuring an absorbance at 405 nm using a microplate reader (BioTek Synergy HT). Positive and negative controls in this assay were 1% Triton X-100 and PBS pH 7.4, respectively. Hemolysis (%) was calculated using an equation: (OD405 nm peptide ‒ OD405 nm PBS pH 7.4)/(OD405 nm 1% Triton X-100 ‒ OD405 nm PBS pH 7.4) × 100.

lasR mRNA = test: qRT-PCR of quorum sensing-related gene lasR; assay type: cell-based, Pseudomonas aeruginosa; conditions: 800 µM, 10 h
Method: as §1

[1] = test system: P. aeruginosa PAO1 biofilms; test: Antibiofilm activity of BmKn-22 and azithromycin alone or in combination, crystal violet; assay type: cell-based, Pseudomonas aeruginosa
Method: (§2) The effect of BmKn‒2 peptide and derivatives on biofilm formation of P. aeruginosa PAO1 was determined according to the method published previously with some modifications. Briefly, 100 μL of the test peptides was plated into the wells of flat-bottomed 96-well microtiter plates (Nunc™, Roskilde, Denmark) at the final concentrations of 200 ‒ 800 μM. Aliquots of the P. aeruginosa PAO1 suspension were then inoculated to the wells of 96-well microtiter plates to obtain a final concentration of 10^6 CFU/mL. Culture without the test peptides was used as the untreated control. After incubation at 37 ^OC for 24 h without agitation, planktonic cells were removed and the plates were gently rinsed twice with phosphate buffered saline (PBS) pH 7.4. Biofilms were then stained with 0.1% crystal violet solution (Merck, Darmstadt, Germany) for 10 minutes at room temperature. Excess stains were rinsed off with PBS pH 7.4 and the plates were left dry at 37 ^OC for 2 h. Subsequently, biofilm biomass was solubilized with 30% acetic acid and the optical density (OD) measured at 550 nm using a microplate reader (BioTek Synergy HT).
Briefly, P. aeruginosa PAO1 suspension (10^6 CFU/mL, final concentration) was added to the wells of flat-bottomed 96-well microtiter plates (Nunc) containing the test peptide, azithromycin (AZM; Sigma) alone or in combinations. […] Biofilm formation was employed by measuring biofilm biomass stained with crystal violet as a protocol described in previous section.

[2] = test system: P. aeruginosa PAO1 biofilm formation; test: Biofilm formation assay, crystal violet staining; assay type: cell-based, Pseudomonas aeruginosa
Method: as §2

[3] = normalized to 16S rRNA, 2^-ΔΔct, untreated control = 1, mean of 2 independent experiments in quadruplicate

Sequence: FIGAIARLLSK [BmKn-22]
- Relative mRNA expression, lasI (lasI mRNA; [3]): 0.403
- Relative mRNA expression, lasI (lasI mRNA; Exp. 1): 0.314
- Relative mRNA expression, lasI (lasI mRNA; Exp. 2): 0.491
- mRNA expression of lasI (lasI mRNA; result in words): significantly (P < 0.05) decreased
- lysis of red blood cells (sheep red blood cells): less or no hemolysis
- Relative mRNA expression, lasR (lasR mRNA; [3]): 0.949
- Relative mRNA expression, lasR (lasR mRNA; Exp. 1): 0.732
- Relative mRNA expression, lasR (lasR mRNA; Exp. 2): 1.166
- mRNA expression of lasR (lasR mRNA; result in words): no alteration
- biofilm reduction ([1]; BmKn-22 at 200 µM combined with 64 µg/mL azithromycin (1/2 MIC)): Up to 51.39%
- biofilm reduction ([1]; BmKn-22 at 400 µM combined with 64 µg/mL azithromycin (1/2 MIC)): ≤ 62.05%
- biofilm reduction ([1]; BmKn-22 at 800 µM combined with 64 µg/mL azithromycin (1/2 MIC)): 96.97%
- Biofilm biomass (% control) ([1]; peptide alone 200 µM, 24 h, 37 °C, crystal violet, mean of 3 independent experiments): 80.903 % control
- Biofilm biomass (% control) ([1]; peptide alone 200 µM, Exp. 1): 94.033 % control
- Biofilm biomass (% control) ([1]; peptide alone 200 µM, Exp. 2): 82.424 % control
- Biofilm biomass (% control) ([1]; peptide alone 200 µM, Exp. 3): 66.251 % control
- Biofilm biomass (% control) ([1]; peptide alone 400 µM, 24 h, 37 °C, crystal violet, mean of 3 independent experiments): 67.309 % control
- Biofilm biomass (% control) ([1]; peptide alone 400 µM, Exp. 1): 75.858 % control
- Biofilm biomass (% control) ([1]; peptide alone 400 µM, Exp. 2): 68.773 % control
- Biofilm biomass (% control) ([1]; peptide alone 400 µM, Exp. 3): 57.297 % control
- Biofilm biomass (% control) ([1]; peptide alone 800 µM, 24 h, 37 °C, crystal violet, mean of 3 independent experiments): 43.753 % control
- Biofilm biomass (% control) ([1]; peptide alone 800 µM, Exp. 1): 51.716 % control
- Biofilm biomass (% control) ([1]; peptide alone 800 µM, Exp. 2): 46.698 % control
- Biofilm biomass (% control) ([1]; peptide alone 800 µM, Exp. 3): 32.845 % control
- Biofilm inhibition (%), biofilm formation ([2]; 200 µM, Exp. 1): 27.575%
- Biofilm inhibition (%), biofilm formation ([2]; 200 µM, Exp. 2): 27.680%
- Biofilm inhibition (%), biofilm formation ([2]; 200 µM, Exp. 3): 8.419%
- Biofilm inhibition (%), biofilm formation ([2]; 400 µM, Exp. 1): 20.197%
- Biofilm inhibition (%), biofilm formation ([2]; 400 µM, Exp. 2): 40.825%
- Biofilm inhibition (%), biofilm formation ([2]; 400 µM, Exp. 3): 37.257%
- reduction of P. aeruginosa biofilms ([2]; 800 µM, 24 h, compared with untreated control, result in words): marked reduction
- Biofilm inhibition (%), biofilm formation ([2]; 800 µM, Exp. 1): 46.468%
- Biofilm inhibition (%), biofilm formation ([2]; 800 µM, Exp. 2): 53.212%
- Biofilm inhibition (%), biofilm formation ([2]; 800 µM, Exp. 3): 47.945%

Reference: article PMC6568410, “A scorpion venom peptide derivative BmKn‒22 with potent antibiofilm activity against Pseudomonas aeruginosa” (PLoS ONE, 2019)
